Data published in the supplement of paper PMC10307832.

These cell lines were tested with CC(C)N(CCCNC(=O)Nc1ccc(C(C)(C)C)cc1)C[C@H]1O[C@@H](n2ccc3c(N)ncnc32)[C@H](O)[C@@H]1O + Cc1nc(Nc2ncc(C(=O)Nc3c(C)cccc3Cl)s2)cc(N2CCN(CCO)CC2)n1 [Dasatinib] (partner 0.075 µM) (assay: relative viability (nuclei count vs DMSO), 5 days (fraction); higher = more cells survive). Conditions: first compound 0.08 µM.
How it was run: (§1)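 Lung cancer cell lines, seeded in 1536-well plates, were treated the following day by pin tool with a single drug or with five library-drug doses (not always all listed) in √10 steps on top of a fixed anchor-drug dose. Cells were fixed and nuclei stained in one step after 5 days, and nuclei were counted. Relative viability is the nuclei count for treated wells divided by that for vehicle wells, reported as medians of duplicate plates.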
For NCI-H1755, the relative viability was 0.373.
Cell Line NCI-H2085 has a relative viability of 0.248.
With HCC-15 the relative viability was 0.596.
Work on RERF-LC-KJ yielded a relative viability of 0.837.
With EKVX the relative viability was 0.571.
LC-2-ad showed a relative viability of 0.528.
NCI-H1975 gave a relative viability of 0.382.
Cell Line SW 1573 has a relative viability of 0.475.
For SK-LU-1, the relative viability was 0.18.

Same assay, conditions: first compound 0.253 µM
For NCI-H1755, the relative viability was 0.44.
With NCI-H2085 the relative viability was 0.218.
For HCC-15, the relative viability was 0.684.
In the case of RERF-LC-KJ, the relative viability is reported as 0.888.
EKVX gave a relative viability of 0.502.
Cell Line LC-2-ad has a relative viability of 0.569.
In the case of NCI-H1975, the relative viability is reported as 0.337.
SW 1573 showed a relative viability of 0.463.
With SK-LU-1 the relative viability was 0.184.

Same assay, conditions: first compound 0.8 µM
In the case of NCI-H1755, the relative viability is reported as 0.418.
For NCI-H2085, the relative viability was 0.288.
HCC-15 gave a relative viability of 0.574.
In the case of RERF-LC-KJ, the relative viability is reported as 0.79.
In the case of EKVX, the relative viability is reported as 0.509.
In the case of LC-2-ad, the relative viability is reported as 0.527.
With NCI-H1975 the relative viability was 0.241.
With SW 1573 the relative viability was 0.579.
For SK-LU-1, the relative viability was 0.19.

Same assay, conditions: first compound 2.53 µM
NCI-H1755 showed a relative viability of 0.428.
NCI-H2085 showed a relative viability of 0.232.
With HCC-15 the relative viability was 0.581.
RERF-LC-KJ was tested, and the relative viability was 0.778.
In the case of EKVX, the relative viability is reported as 0.517.
For LC-2-ad, the relative viability was 0.502.
NCI-H1975 was tested, and the relative viability was 0.341.
Cell Line SW 1573 has a relative viability of 0.704.
For SK-LU-1, the relative viability was 0.184.

Same assay, conditions: first compound 8 µM
For NCI-H1755, the relative viability was 0.429.
For NCI-H2085, the relative viability was 0.26.
In the case of HCC-15, the relative viability is reported as 0.591.
RERF-LC-KJ showed a relative viability of 0.799.
With EKVX the relative viability was 0.524.
In the case of LC-2-ad, the relative viability is reported as 0.632.
Cell Line NCI-H1975 has a relative viability of 0.288.
With SW 1573 the relative viability was 0.474.
SK-LU-1 gave a relative viability of 0.207.

The cell lines below were run with CC(C)=CC[C@@H](O)C1=CC(=O)c2c(O)ccc(O)c2C1=O [Shikonin] + Nc1nc2[nH]cc(CCc3ccc(C(=O)N[C@@H](CCC(=O)O)C(=O)O)cc3)c2c(=O)[nH]1 [Pemetrexed] (partner 0.2 µM) in the same assay as above. Conditions: first compound 0.01 µM.
How it was run: as §1
With NCI-H1755 the relative viability was 0.453.
NCI-H2085 was tested, and the relative viability was 0.88.
Work on HCC-15 yielded a relative viability of 0.228.
RERF-LC-KJ gave a relative viability of 0.47.
In the case of EKVX, the relative viability is reported as 0.438.
LC-2-ad was tested, and the relative viability was 0.297.
With NCI-H1975 the relative viability was 0.315.
In the case of SW 1573, the relative viability is reported as 0.946.
For SK-LU-1, the relative viability was 1.14.

Same assay, conditions: first compound 0.1 µM
In the case of NCI-H1755, the relative viability is reported as 0.409.
In the case of NCI-H2085, the relative viability is reported as 0.93.
With HCC-15 the relative viability was 0.225.
In the case of RERF-LC-KJ, the relative viability is reported as 0.512.
EKVX showed a relative viability of 0.435.
For LC-2-ad, the relative viability was 0.273.
NCI-H1975 was tested, and the relative viability was 0.298.
Cell Line SW 1573 has a relative viability of 0.947.
For SK-LU-1, the relative viability was 1.17.

Same assay, conditions: first compound 0.3162 µM
NCI-H1755 gave a relative viability of 0.477.
Work on NCI-H2085 yielded a relative viability of 0.868.
HCC-15 showed a relative viability of 0.233.
For RERF-LC-KJ, the relative viability was 0.465.
Cell Line EKVX has a relative viability of 0.472.
In the case of LC-2-ad, the relative viability is reported as 0.269.
In the case of NCI-H1975, the relative viability is reported as 0.286.
Work on SW 1573 yielded a relative viability of 0.589.
Work on SK-LU-1 yielded a relative viability of 1.01.

Same assay, conditions: first compound 1 µM
With NCI-H1755 the relative viability was 0.417.
NCI-H2085 showed a relative viability of 0.872.
With HCC-15 the relative viability was 0.213.
In the case of RERF-LC-KJ, the relative viability is reported as 0.549.
EKVX was tested, and the relative viability was 0.362.
For LC-2-ad, the relative viability was 0.282.
Cell Line NCI-H1975 has a relative viability of 0.283.
SW 1573 gave a relative viability of 0.143.
With SK-LU-1 the relative viability was 0.994.

The cell lines below were run with CC(C)N(CCCNC(=O)Nc1ccc(C(C)(C)C)cc1)C[C@H]1O[C@@H](n2ccc3c(N)ncnc32)[C@H](O)[C@@H]1O + O=C(CCCCCCC(=O)Nc1ccccc1)NO [Vorinostat] (partner 1 µM) in the same assay as above. Conditions: first compound 0.08 µM.
How it was run: as §1
In the case of NCI-H1755, the relative viability is reported as 0.769.
Work on NCI-H2085 yielded a relative viability of 0.769.
HCC-15 showed a relative viability of 0.92.
With RERF-LC-KJ the relative viability was 0.638.
Cell Line EKVX has a relative viability of 0.64.
With LC-2-ad the relative viability was 0.666.
Cell Line NCI-H1975 has a relative viability of 0.748.
For SW 1573, the relative viability was 0.596.
In the case of SK-LU-1, the relative viability is reported as 0.742.

Same assay, conditions: first compound 0.253 µM
NCI-H1755 showed a relative viability of 0.74.
NCI-H2085 gave a relative viability of 0.667.
In the case of HCC-15, the relative viability is reported as 0.806.
In the case of RERF-LC-KJ, the relative viability is reported as 0.741.
With EKVX the relative viability was 0.772.
LC-2-ad showed a relative viability of 0.784.
Cell Line NCI-H1975 has a relative viability of 0.687.
Cell Line SW 1573 has a relative viability of 0.666.
In the case of SK-LU-1, the relative viability is reported as 0.775.

Same assay, conditions: first compound 0.8 µM
NCI-H1755 gave a relative viability of 0.666.
NCI-H2085 was tested, and the relative viability was 0.813.
Work on HCC-15 yielded a relative viability of 0.888.
Work on RERF-LC-KJ yielded a relative viability of 0.551.
EKVX gave a relative viability of 0.705.
For LC-2-ad, the relative viability was 0.55.
Cell Line NCI-H1975 has a relative viability of 0.701.
Work on SW 1573 yielded a relative viability of 0.648.
Cell Line SK-LU-1 has a relative viability of 0.87.

Same assay, conditions: first compound 2.53 µM
NCI-H1755 showed a relative viability of 0.756.
Work on NCI-H2085 yielded a relative viability of 0.887.
In the case of HCC-15, the relative viability is reported as 0.818.
In the case of RERF-LC-KJ, the relative viability is reported as 0.742.
EKVX gave a relative viability of 0.62.
LC-2-ad gave a relative viability of 0.722.
NCI-H1975 was tested, and the relative viability was 0.658.
Cell Line SW 1573 has a relative viability of 0.893.
Cell Line SK-LU-1 has a relative viability of 0.87.

Same assay, conditions: first compound 8 µM
With NCI-H1755 the relative viability was 0.723.
For NCI-H2085, the relative viability was 0.744.
HCC-15 showed a relative viability of 0.793.
RERF-LC-KJ was tested, and the relative viability was 0.707.
EKVX was tested, and the relative viability was 0.705.
LC-2-ad showed a relative viability of 0.671.
Work on NCI-H1975 yielded a relative viability of 0.709.
For SW 1573, the relative viability was 0.886.
SK-LU-1 was tested, and the relative viability was 0.736.

These cell lines were tested with CC(C)N(CCCNC(=O)Nc1ccc(C(C)(C)C)cc1)C[C@H]1O[C@@H](n2ccc3c(N)ncnc32)[C@H](O)[C@@H]1O + CC(C)C[C@H](NC(=O)[C@H](Cc1ccccc1)NC(=O)c1cnccn1)B(O)O [Bortezomib] (partner 0.002 µM) in the same assay as above. Conditions: first compound 0.08 µM.
How it was run: as §1
With NCI-H1755 the relative viability was 0.934.
NCI-H2085 gave a relative viability of 1.02.
Work on HCC-15 yielded a relative viability of 0.979.
Work on RERF-LC-KJ yielded a relative viability of 0.97.
Cell Line EKVX has a relative viability of 1.06.
LC-2-ad gave a relative viability of 0.968.
Work on NCI-H1975 yielded a relative viability of 0.34.
In the case of SW 1573, the relative viability is reported as 1.13.
With SK-LU-1 the relative viability was 1.22.

Same assay, conditions: first compound 0.253 µM
For NCI-H1755, the relative viability was 0.914.
For NCI-H2085, the relative viability was 0.925.
Cell Line HCC-15 has a relative viability of 1.04.
RERF-LC-KJ gave a relative viability of 1.15.
In the case of EKVX, the relative viability is reported as 1.24.
LC-2-ad was tested, and the relative viability was 1.2.
For NCI-H1975, the relative viability was 0.352.
SW 1573 was tested, and the relative viability was 1.07.
SK-LU-1 was tested, and the relative viability was 1.02.

Same assay, conditions: first compound 0.8 µM
NCI-H1755 showed a relative viability of 0.467.
Work on NCI-H2085 yielded a relative viability of 0.749.
For HCC-15, the relative viability was 0.773.
With RERF-LC-KJ the relative viability was 1.09.
EKVX gave a relative viability of 1.08.
LC-2-ad gave a relative viability of 0.65.
NCI-H1975 showed a relative viability of 0.149.
Work on SW 1573 yielded a relative viability of 1.06.
For SK-LU-1, the relative viability was 1.18.

Same assay, conditions: first compound 2.53 µM
Cell Line NCI-H1755 has a relative viability of 0.929.
NCI-H2085 gave a relative viability of 1.09.
In the case of HCC-15, the relative viability is reported as 1.
In the case of RERF-LC-KJ, the relative viability is reported as 1.04.
With EKVX the relative viability was 0.993.
With LC-2-ad the relative viability was 0.978.
With NCI-H1975 the relative viability was 0.36.
In the case of SW 1573, the relative viability is reported as 1.12.
Work on SK-LU-1 yielded a relative viability of 1.31.

Same assay, conditions: first compound 8 µM
Cell Line NCI-H1755 has a relative viability of 0.878.
Cell Line NCI-H2085 has a relative viability of 0.907.
With HCC-15 the relative viability was 0.943.
In the case of RERF-LC-KJ, the relative viability is reported as 0.971.
With EKVX the relative viability was 0.786.
Work on LC-2-ad yielded a relative viability of 0.878.
Cell Line NCI-H1975 has a relative viability of 0.341.
Work on SW 1573 yielded a relative viability of 0.864.
Cell Line SK-LU-1 has a relative viability of 1.03.
